# Columns and labels:
# [1] = test system: DU-145; experiment: NCI60 cell line screen; conditions: Homo sapiens
# [2] = test system: SF-295; experiment: NCI60 cell line screen; conditions: Homo sapiens
# [3] = test system: 786-0; experiment: NCI60 cell line screen; conditions: Homo sapiens
# [4] = test system: NCI-H226; experiment: NCI60 cell line screen; conditions: Homo sapiens
# [5] = test system: OVCAR-5; experiment: NCI60 cell line screen; conditions: Homo sapiens
# [6] = test system: RPMI-8226; experiment: NCI60 cell line screen; conditions: Homo sapiens
# [7] = test system: M14; experiment: NCI60 cell line screen; conditions: Homo sapiens
# [8] = test system: MCF-7 breast cancer cell line; experiment: Antiproliferation study, MTT cell viability assay; format: cell-based; conditions: Homo sapiens, MCF7, 72 h, antiproliferative activity, MTT, 72 h; read-out: IC50 (μM) MCF-7 cell line
# In short: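 Cells seeded at 2.5×10^4 cells/ml and grown 24 h at 37 °C before compound treatment; vehicle 1% v/v ethanol. MTT at 1 mg/mL final for 2 h at 37 °C, then DMSO solubilisation and absorbance read. Viability expressed as % of untreated control, in triplicate, with compounds tested as free bases.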
# [9] = test system: T-47D; experiment: NCI60 cell line screen; conditions: Homo sapiens, T47D
# [10] = test system: HL-60(TB); experiment: NCI60 cell line screen; conditions: Homo sapiens
# [11] = test system: SK-MEL-28; experiment: NCI60 cell line screen; conditions: Homo sapiens
# [12] = test system: HCT-116; experiment: NCI60 cell line screen; conditions: Homo sapiens
# [13] = test system: SW-620; experiment: NCI60 cell line screen; conditions: Homo sapiens
# [14] = test system: RXF 393; experiment: NCI60 cell line screen; conditions: Homo sapiens
# [15] = test system: A549/ATCC; experiment: NCI60 cell line screen; conditions: Homo sapiens
# [16] = test system: OVCAR-8; experiment: NCI60 cell line screen; conditions: Homo sapiens
# [17] = test system: SK-OV-3; experiment: NCI60 cell line screen; conditions: Homo sapiens
# [18] = test system: CAKI-1; experiment: NCI60 cell line screen; conditions: Homo sapiens
# [19] = test system: SN12C; experiment: NCI60 cell line screen; conditions: Homo sapiens
# [20] = test system: MDA-MB-468; experiment: NCI60 cell line screen; conditions: Homo sapiens
# [21] = test system: KM12; experiment: NCI60 cell line screen; conditions: Homo sapiens
# [22] = test system: UACC-62; experiment: NCI60 cell line screen; conditions: Homo sapiens
# [23] = test system: BT-549; experiment: NCI60 cell line screen; conditions: Homo sapiens
# [24] = test system: MDA-MB-231/ATCC; experiment: NCI60 cell line screen; conditions: Homo sapiens
# [25] = test system: A498; experiment: NCI60 cell line screen; conditions: Homo sapiens
# [26] = test system: U251; experiment: NCI60 cell line screen; conditions: Homo sapiens, U-251
# [27] = test system: COLO 205; experiment: NCI60 cell line screen; conditions: Homo sapiens
# [28] = test system: IGROV1; experiment: NCI60 cell line screen; conditions: Homo sapiens, IGROV-1
# [29] = test system: NCI-H552; experiment: NCI60 cell line screen
# [30] = test system: ACHN; experiment: NCI60 cell line screen; conditions: Homo sapiens
# [31] = test system: SF-539; experiment: NCI60 cell line screen; conditions: Homo sapiens
# [32] = test system: LOX IMVI; experiment: NCI60 cell line screen; conditions: Homo sapiens
# [33] = test system: EKVX; experiment: NCI60 cell line screen; conditions: Homo sapiens
# [34] = test system: HCT-15; experiment: NCI60 cell line screen; conditions: Homo sapiens
# [35] = test system: CCRF-CEM; experiment: NCI60 cell line screen; conditions: Homo sapiens
# [36] = test system: SNB-19; experiment: NCI60 cell line screen; conditions: Homo sapiens
SMILES,GI50 [1] [µM],GI50 [2] [µM],GI50 [3] [µM],GI50 [4] [µM],GI50 [5] [µM],GI50 [6] [µM],melting point [°C],GI50 [7] [µM],IC50 [8] [µM],GI50 [9] [µM],GI50 [10] [µM],GI50 [11] [µM],GI50 [12] [µM],GI50 [13] [µM],GI50 [14] [µM],GI50 [15] [µM],GI50 [16] [µM],GI50 [17] [µM],GI50 [18] [µM],GI50 [19] [µM],other results
"COc1ccc(C2C(c3ccccc3)C(=O)N2c2cc(OC)c(OC)c(OC)c2)cc1O (stereo not drawn) [Compound 4, 4-(3-Hydroxy-4-methoxyphenyl)-3-phenyl-1-(3,4,5-trimethoxyphenyl)-azetidin-2-one]",< 0.01,< 0.01,0.034,< 0.01,0.038,< 0.01,110,< 0.01,0.0096,31.2,< 0.01,< 0.01,< 0.01,< 0.01,< 0.01,< 0.01,0.01,0.037,< 0.01,< 0.01,GI50 [20]: < 0.01 µM; GI50 [21]: < 0.01 µM; GI50 [22]: < 0.01 µM; GI50 [23]: < 0.01 µM; GI50 [24]: < 0.01 µM; GI50 [25]: < 0.01 µM; GI50 [26]: < 0.01 µM; GI50 [27]: 0.019 µM; GI50 [28]: < 0.01 µM; GI50 [29]: 5.15 µM; GI50 [30]: < 0.01 µM; GI50 [31]: < 0.01 µM; GI50 [32]: < 0.01 µM; GI50 [33]: < 0.01 µM; GI50 [34]: < 0.01 µM; GI50 [35]: < 0.01 µM; GI50 [36]: 0.025 µM
"COc1ccc(C2C(c3ccccc3)C(=O)N2c2cc(OC)c(OC)c(OC)c2)cc1 (stereo not drawn) [Compound 8, 4-(4-Methoxy-phenyl)-3-phenyl-1-(3,4,5-trimethoxy-phenyl)-azetidin-2-one]",0.0569,0.035,0.432,0.263,0.668,0.0293,108,0.132,0.034,> 100,0.0162,0.405,0.0398,0.0487,0.0365,0.238,0.125,0.412,0.0848,0.312,GI50 [20]: 0.0684 µM; GI50 [21]: 0.0427 µM; GI50 [22]: 0.0405 µM; GI50 [23]: 0.117 µM; GI50 [24]: 0.2 µM; GI50 [25]: 0.0375 µM; GI50 [26]: 0.095 µM; GI50 [27]: 0.166 µM; GI50 [28]: 0.285 µM; GI50 [29]: 0.0966 µM; GI50 [30]: 0.138 µM; GI50 [31]: 0.033 µM; GI50 [32]: 0.0676 µM; GI50 [33]: 0.352 µM; GI50 [34]: 0.17 µM; GI50 [35]: 0.0372 µM; GI50 [36]: 0.28 µM
"COc1ccc(C2C(c3cccs3)C(=O)N2c2cc(OC)c(OC)c(OC)c2)cc1 (stereo not drawn) [Compound 12, 4-(4-Methoxyphenyl)-3-thiophen-2-yl-1-(3,4,5-trimethoxyphenyl)-azetidin-2-one]",< 0.01,< 0.01,0.031,< 0.01,0.051,< 0.01,115,< 0.01,0.064,> 1000,< 0.01,0.01,< 0.01,0.01,< 0.01,0.023,< 0.01,0.038,0.016,< 0.01,GI50 [20]: < 0.01 µM; GI50 [21]: < 0.01 µM; GI50 [22]: < 0.01 µM; GI50 [23]: < 0.01 µM; GI50 [24]: 0.01 µM; GI50 [25]: < 0.01 µM; GI50 [26]: 0.037 µM; GI50 [27]: 0.015 µM; GI50 [28]: 0.02 µM; GI50 [29]: < 0.01 µM; GI50 [30]: < 0.01 µM; GI50 [31]: < 0.01 µM; GI50 [32]: < 0.01 µM; GI50 [33]: 0.034 µM; GI50 [34]: 0.026 µM; GI50 [35]: < 0.01 µM; GI50 [36]: 0.043 µM

# From patent publication US20120309734A1, “COMBRETASTATIN DERIVATIVES AND USES THEREFOR” (priority 2009, published 2012)
